The test system of one experiment is VCAM-1. The experiment in a line: VCAM-1 western blot in TNFα treated HUVECs. The class given is cell-based, human. The method, then: FIG. 25 is a graph showing VCAM-1 protein expression level as a cellular correlate of inflammation. INV-75 inhibits TNFα induced VCAM-1 expression in HUVECs. HUVECs were pretreated with vehicle, INV75, or WY-14643 for 2 hours, and then treated with TNFα for 4 hours. VCAM-1 expression was analyzed by Western blot. A representative and summary of three independent experiments are presented. *, p<0.05 vs control; #, p<0.05 vs TNFα.
In subsequent experiments we also tested the effects of INV-75 on VCAM-1 expression by western blot.
We have also examined the effects of INV-75 in cell culture to understand its effects on regulation of the adhesion molecule VCAM-1. We had previously shown that iNV-75 reduced NF-kB activation and expression of VCAM-1 and ICAM-1 in HUVEC cells (see FIG. 3 and FIG. 4). […] HUVECs were pretreated with vehicle, INV-75, or WY-14643 for 2 hours, and then treated with TNFα for 4 hours. VCAM-1 expression was analyzed at the end of this duration. A representative and summary of three independent experiments are presented. *, p<0.05 vs control; #, p<0.05 vs TNFα (FIG. 25).
Background: A western blot detects proteins with antibodies after separation by electrophoresis.

For experiment [1], the system named is Watanabe Heritable Hyperlipidemic Rabbits (WHHL). The experiment can be described thus: Blood lipid profile in WHHL rabbits. In kind it is in vivo, rabbit. To be noted: end of treatment. How it is done:
Hypercholesterolemia and oxidative stress occupy an important function in the progress of atherosclerosis. Lipids (cholesterol and LDL) in the blood were evaluated by analyzing the blood samples both at the baseline and the end point measurements. 1 ml of blood from an ear lobe vein was placed into K EDTA tubes at a start of high cholesterol diet and again at the time of sacrifice. All values were expressed as mean±SD. The bar graph of each group for total cholesterol and LDL cholesterol at baseline prior to the initiation of high fat chow, following high fat chow but before intervention and at the end of intervention with INV-75 and control are presented. (FIG. 14 A and FIG. 14B). […] The lack of effect may relate to the genetic model (WHHL) which has extremely high lipid values and a mutation in the LDL receptor. Since INV 75 is believed to function by increasing LDL clearance through an increase in LDL receptor expression, the lack of effect on LDL cholesterol and total cholesterol (major lipoprotein fraction in this model at baseline and in response to high fat chow feeding) is understandable.

For the next experiment, the target named is T1, human full length PPARα (Homo sapiens, UniProt Q07869).
T1 construct: HepG2 cells transfected by full length human PPARα linked to luciferase reporter; expressed in transfected cells; host or cells: HepG2
T1 sequence (Q07869 1-468): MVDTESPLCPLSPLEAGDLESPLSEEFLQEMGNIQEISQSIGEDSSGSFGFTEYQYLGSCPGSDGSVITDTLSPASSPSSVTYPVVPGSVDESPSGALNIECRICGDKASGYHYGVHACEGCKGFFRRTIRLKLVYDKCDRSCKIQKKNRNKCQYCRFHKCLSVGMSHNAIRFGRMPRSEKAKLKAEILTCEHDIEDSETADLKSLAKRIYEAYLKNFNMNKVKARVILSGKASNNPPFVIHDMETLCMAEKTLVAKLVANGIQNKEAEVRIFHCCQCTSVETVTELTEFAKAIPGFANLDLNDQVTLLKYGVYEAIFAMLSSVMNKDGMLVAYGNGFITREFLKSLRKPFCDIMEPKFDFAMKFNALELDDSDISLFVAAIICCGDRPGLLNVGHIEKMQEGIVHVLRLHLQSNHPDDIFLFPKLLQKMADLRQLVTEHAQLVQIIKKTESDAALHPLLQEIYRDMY
The experiment can be described thus: PPARα promoter-reporter luciferase assay in HepG2 cells. In kind it is cell-based. The source says:
HepG2 cells were transfected with the full length PPARα promoter reporter construct and stimulated by INV-75 ([…]). Results in C are expressed as % increase compared to WY 14643.
We used a reporter gene assay in HepG2 cells to screen for agonists of the peroxisome proliferator-activated receptors. Peroxisome proliferator-activated receptors (PPARs) and other members of the nuclear hormone receptor family are important drug targets for the treatment of metabolic diseases. PPARs play crucial roles in lipid and glucose metabolism, respectively. Therefore, screening methods that help to rapidly identify activators of these receptors should be of considerable value. INV-75 activated a classic PPARα gene, Acetyl-CoA Oxidase (ACO) in a dose dependent and time dependent fashion (FIG. 6A). The time course experiment was performed in presence of INV-75 up to 15 hours. […] We next tested the specificity of INV-75 for PPARα by performing experiments in HepG2 cells transfected with yeast GAL4-PPARα-LBD plasmid+UAS-Luciferase; GAL4-PPARδ-LBD plasmid+UAS-Luciferase and […]. The PPARα, PPARδ and PPARγ binding assays were performed using multiple concentrations of INV-75 (1 μM, 10 μM, 100 μM and 1000 μM). The level of luciferase activity corresponded to the degree of PPAR activation. The results were compared with classic PPAR agonists such as WY-14643 (PPARα agonist), Bezafibrate (PPARδ agonist) and Rosiglitazone ([…]).

The test system of another experiment is SREBP-1. The experiment can be described thus: SREBP-1 regulation in HepG2 cells. The class given is cell-based, human. To be noted: data not shown. The text has this:
Next we investigated the effect of INV-75 in regulating LDL receptor expression in the same cells using a similar protocol to assess dose and temporal dependence. FIGS. 5E and 5F depict the time course of LDL receptor expression and dose dependence in response to INV-75. […] INV-75 had no effects on SREBP-1 regulation (data not shown). Simultaneously multiple genes involved in cholesterol synthesis and regulation, apolipoprotein gene expression and expression of PCSK9 (Proprotein convertase subtilisin/kexin type 9) was tested. The latter gene is known to regulate LDL receptor expression by binding to the epidermal growth factor-like repeat A (EGF-A) domain of the low-density lipoprotein receptor (LDLR), inducing LDLR degradation. Inhibition of PSCK9 function is currently being explored as a means of lowering cholesterol levels.

We go through 1 molecule from US8198317B2, “Methylenedioxy phenolic compounds and their use to treat disease” (The Ohio State University Research Foundation, priority 2008, dated 2012).

Some results are limits rather than exact numbers.

Take `CC(=O)Oc1cc2c(cc1[N+](=O)[O-])OCO2` [INV-75, 3,4-methylenedioxy-6-nitrophenyl acetate]: the “TNFα induced VCAM-1 expression” value in the experiment with VCAM-1 (HUVECs pretreated 2 hours, then TNFα 4 hours) was “inhibits”. Further, the “VCAM-1 protein levels by western blot” value with VCAM-1 (pre-treatment versus control (vehicle)) was “reduction”. In addition, in experiment [1], the LDL cholesterol result is “no differences” and the total cholesterol result was “no differences”. Further, the luciferase activation entry at human full length PPARα (HepG2 transfected with PPARα promoter-reporter construct) is listed as “increased”. On human full length PPARα (time course), the “persistence of effects on PPARα activation” value is “up to 15 hours” and the “time of onset of PPARα activation” value was under 1 h. Also, the SREBP-1 regulation result in the experiment on SREBP-1 is given as “no effects”.
